From PubChem BioAssay (NCI)
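Grown in 96-well plates, cells were treated for 48 hours with each compound at five concentrations. Insufficient inhibition: endpoint recorded as highest concentration tested. The concentration for 50% growth inhibition is given as GI50. The concentration for full growth arrest is given as TGI.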

What was measured:
Test in all cases: NCI tumour cell line growth inhibition, 48 h
786-0 renal = tested on: 786-0 renal
CCRF-CEM leukemia = tested on: CCRF-CEM leukemia
COLO 205 colon = tested on: COLO 205 colon
HOP-92 NSCLC = tested on: HOP-92 NSCLC
NCI-H522 lung = tested on: NCI-H522 lung
RPMI-8226 leukemia = tested on: RPMI-8226 leukemia
SK-MEL-28 melanoma = tested on: SK-MEL-28 melanoma
TK-10 renal = tested on: TK-10 renal
DU-145 prostate = tested on: DU-145 prostate
KM12 colon = tested on: KM12 colon

| Structure (SMILES) | TGI (786-0 renal) [µM] | TGI (CCRF-CEM leukemia) [µM] | TGI (COLO 205 colon) [µM] | TGI (HOP-92 NSCLC) [µM] | TGI (NCI-H522 lung) [µM] | TGI (RPMI-8226 leukemia) [µM] | TGI (SK-MEL-28 melanoma) [µM] | TGI (TK-10 renal) [µM] | GI50 (786-0 renal) [µM] | GI50 (CCRF-CEM leukemia) [µM] | GI50 (COLO 205 colon) [µM] | GI50 (DU-145 prostate) [µM] | TGI (DU-145 prostate) [µM] | GI50 (KM12 colon) [µM] | TGI (KM12 colon) [µM] | GI50 (NCI-H522 lung) [µM] | GI50 (RPMI-8226 leukemia) [µM] | GI50 (SK-MEL-28 melanoma) [µM] | GI50 (TK-10 renal) [µM] | GI50 (HOP-92 NSCLC) [µM] |
| --- | --- | --- | --- | --- | --- | --- | --- | --- | --- | --- | --- | --- | --- | --- | --- | --- | --- | --- | --- | --- |
| O=C(NCCOCCO)c1ccc(O)cc1 | > 100 | > 100 | > 100 | > 100 | > 100 | > 100 | > 100 | > 100 |  |  |  |  |  |  |  |  |  |  |  |  |
| c1ccc(Oc2cnc3ccccc3n2)cc1 | > 100 | > 100 | > 100 |  | > 100 | > 100 | > 100 | > 100 | > 100 | > 100 | > 100 | > 100 | > 100 | > 100 | > 100 | > 100 | > 100 | > 100 | 53.9 |  |
| OC(c1cc2c(Cl)cc(Cl)cc2c2cc(C(F)(F)F)ccc12)C1CCCCN1 (centres undefined) | 3.5 |  | 3.55 | 2.57 | 3.22 | 4.95 | 3.62 | 3.63 | 1.66 |  | 1.88 | 2 | 3.55 | 1.89 | 3.46 | 1.55 | 2.3 | 1.96 | 2 | 1.12 |
| CCCCCCCCCCCC(=O)[O][Sn]([CH2]CCC)([CH2]CCC)[CH2]CCC | 0.132 |  | 0.122 | 0.0728 | 0.116 | 0.098 | 0.179 | 0.0677 | 0.0539 |  | 0.0509 | 0.0544 | 0.17 | 0.0357 | 0.117 | 0.0409 | 0.0228 | 0.0649 | 0.0271 | 0.0119 |
| C[C@]12CC[C@H](O)CC1CCC[C@@H]2O (some centres undefined) | > 100 | > 100 | > 100 | > 100 | > 100 | > 100 | > 100 | > 100 |  |  |  |  |  |  | > 100 |  |  |  |  |  |
| COC(=O)/C=C/c1cc(OC)c2c(c1)[C@@H](C(=O)OC)[C@H](c1ccc(OC)c(OC)c1)O2 | > 100 | > 100 |  | > 100 | > 100 |  | > 100 | > 100 | 4.89 | 0.983 |  | 2.8 | > 100 | 0.703 | > 100 | 1.44 |  | 26.4 | 62.7 | 13.1 |
| Cn1c(=O)c2nc3sc4ccccc4c(=N)n3c2n(C)c1=O | > 100 | > 100 | > 100 | > 100 | > 100 |  | > 100 | > 100 |  |  |  |  |  |  | > 100 |  |  |  |  |  |
| COc1cc(-c2cc(C(=O)N3CCN(C(=O)c4ccccc4NCc4cccs4)CC3)nc3cc(-c4ccccc4)nn23)cc(OC)c1OC | > 100 |  | 26.5 | 9.22 | 4.68 |  | > 100 | > 100 | 11.4 |  | 4.04 | 5 | 40.6 | 3.16 | > 100 | 1.67 |  | 9.62 | 20.6 | 2.41 |
| Cc1ccc(Sc2cc([N+](=O)[O-])cc(Sc3ccc(C)cc3)c2Sc2ccc(C)cc2)cc1 | > 100 | 65.4 | > 100 |  |  | > 100 |  | > 100 |  |  |  |  |  |  | > 100 |  |  |  |  |  |
| Cn1c(=O)ccc2cc(C(=O)c3ccccc3)ccc21 | > 100 | > 100 | > 100 | > 100 | 82.7 | > 100 | > 100 | > 100 |  |  |  |  |  |  | > 100 |  |  |  |  |  |
| O=C1CCC(=O)C12CCc1ccccc12 | > 100 |  | > 100 | > 100 |  |  | > 100 | > 100 |  |  |  |  |  |  |  |  |  |  |  |  |
| C=C1[C@@H]2CCC(C)(C)[C@H]1CCC(=O)[C@@H]2C(=O)OC | > 100 | > 100 | > 100 |  |  | > 100 | > 100 | > 100 |  |  |  |  |  |  |  |  |  |  |  |  |
| OC1OC2COC(c3ccccc3)OC2C(O)C1O (centres undefined) | > 100 | > 100 | > 100 | > 100 | > 100 | > 100 |  | > 100 |  |  |  |  |  |  | > 100 |  |  |  |  |  |
| Nc1c(-c2ccc(-c3c(N)[n+]([O-])c4ccccc4[n+]3[O-])cc2)[n+]([O-])c2ccccc2[n+]1[O-] | 26.9 | > 100 | 29.6 | > 100 | 3.65 | > 100 | 20.9 | 32.1 |  |  |  |  |  |  | 23.6 |  |  |  |  |  |
| Clc1ccc2c(NCCCNCc3ccc4c(c3)OCO4)ccnc2c1 | 12 | 19.3 | 3.48 | 4.74 | 8.01 | 6.16 | 3.57 | 5.54 | 2.88 | 4.62 | 1.73 |  |  | 3.86 | 15.1 | 2.44 | 2.31 | 1.86 | 2.19 | 0.739 |
| COc1ccc(/C=C\c2cc(OC)c(OC(C)=O)c(OC)c2)cc1 | > 100 | 57.3 | > 100 | 68.3 | 39.7 | 85.7 | 26.2 |  |  |  |  |  |  |  | 61.2 |  |  |  |  |  |
| COc1cccc(/C=N/[N-]C(N)=O)c1[O-].[Cu+2].c1ccncc1 | 24 | 56.2 | 32.2 | 31.5 | 34.6 | 67.1 | 33.9 |  |  |  |  |  |  |  | 35.9 |  |  |  |  |  |
| O=C1OC(=O)C2C1C1(c3ccccc3)OC2(c2ccccc2)c2c(Br)c(Br)c(Br)c(Br)c21 (centres undefined) | > 100 | > 100 | > 100 | > 100 | > 100 | > 100 |  | > 100 |  |  |  |  |  |  | > 100 |  |  |  |  |  |
| Cc1cccc(C)c1NC(=O)/C(CC(=O)CC(c1ccccc1)c1c(O)c2ccccc2oc1=O)=N/O (centres undefined) | > 100 | > 100 | > 100 | > 100 | > 100 |  | > 100 | > 100 |  |  |  |  | > 100 |  | > 100 |  |  |  |  |  |
| CCN(CC)[C@@H]1c2cc3c(cc2C(c2cc(OC)c(O)c(OC)c2)C2C(=O)CO[C@@H]21)OCO3 (some centres undefined) | > 100 | > 100 | > 100 | > 100 | > 100 | > 100 | > 100 | > 100 |  |  |  |  |  |  | > 100 |  |  |  |  |  |
